Experimental data reported in the supplement of paper PMC4649846.

Assays:
MDA-MB-231 [1] = details: incubation time: 72 h
Description: (§1)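 MDA-MB-231 breast cancer cells were transfected with siBRCA1 or non-targeting siControl, then seeded 24 h later at 4000 cells/well in 384-well plates holding 198 drugs at 5 concentrations. Viability was read by CellTiter-Blue after 72 h at 37 °C. Dose-response curves were fitted in Dotmatics to give IC50 and a drug sensitivity score (DSS: area under the curve relative to the area between the 10% threshold and 100% inhibition, normalised by the log of the top response). The dose range is not stated. IC50 values of 8333.3 or 4166.7 nM mark no response (top dose), and 0.8333 nM is the lower limit.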

MDA-MB-231 [2] = assay: drug sensitivity score (DSS); higher = more sensitive; extreme values may be limits of the assay; details: incubation time: 72 h
Description: as §1

[3] = siRNA: siControl (non-targeting)

## Clc1ccc(Nc2nnc(Cc3ccncc3)c3ccccc23)cc1 [Vatalanib]
MDA-MB-231 [1]; siRNA: siBRCA1
  IC50 of cell viability: > 4.17 µM
MDA-MB-231 [1]; [3]
  IC50 of cell viability: > 4.17 µM
MDA-MB-231 [2]; siRNA: siBRCA1
  drug sensitivity score: 0
MDA-MB-231 [2]; [3]
  drug sensitivity score: 0

## NC1(c2ccc(-c3nc4ccn5c(=O)[nH]nc5c4cc3-c3ccccc3)cc2)CCC1 [MK-2206]
MDA-MB-231 [1]; siRNA: siBRCA1
  IC50 of cell viability: > 4.17 µM
MDA-MB-231 [1]; [3]
  IC50 of cell viability: > 4.17 µM
MDA-MB-231 [2]; siRNA: siBRCA1
  drug sensitivity score: 0
MDA-MB-231 [2]; [3]
  drug sensitivity score: 0

## Oc1nc(-c2ccc(C(F)(F)F)cc2)nc2c1CSCC2 [XAV-939]
MDA-MB-231 [1]; siRNA: siBRCA1
  IC50 of cell viability: 2.82 µM
MDA-MB-231 [1]; [3]
  IC50 of cell viability: 0.23 µM
MDA-MB-231 [2]; siRNA: siBRCA1
  drug sensitivity score: 1.98
MDA-MB-231 [2]; [3]
  drug sensitivity score: 4

## CC1(C)CCC(c2ccc(Cl)cc2)=C(CN2CCN(c3ccc(C(=O)NS(=O)(=O)c4ccc(N[C@H](CCN5CCOCC5)CSc5ccccc5)c(S(=O)(=O)C(F)(F)F)c4)cc3)CC2)C1 [Navitoclax]
MDA-MB-231 [1]; siRNA: siBRCA1
  IC50 of cell viability: 0.835 µM
MDA-MB-231 [1]; [3]
  IC50 of cell viability: 0.821 µM
MDA-MB-231 [2]; siRNA: siBRCA1
  drug sensitivity score: 11
MDA-MB-231 [2]; [3]
  drug sensitivity score: 10.3

## COc1cc([C@@H]2c3cc4c(cc3[C@@H](O[C@@H]3O[C@@H]5CO[C@@H](C)O[C@H]5[C@H](O)[C@H]3O)[C@H]3COC(=O)[C@H]23)OCO4)cc(OC)c1O [Etoposide]
MDA-MB-231 [1]; siRNA: siBRCA1
  IC50 of cell viability: 0.0919 µM
MDA-MB-231 [1]; [3]
  IC50 of cell viability: > 4.17 µM
MDA-MB-231 [2]; siRNA: siBRCA1
  drug sensitivity score: 10
MDA-MB-231 [2]; [3]
  drug sensitivity score: 2.9

## CC1CCN(C(=O)CC#N)CC1N(C)c1ncnc2[nH]ccc12 (stereo in doubt) [Tasocitinib]
MDA-MB-231 [1]; siRNA: siBRCA1
  IC50 of cell viability: > 4.17 µM
MDA-MB-231 [1]; [3]
  IC50 of cell viability: > 4.17 µM
MDA-MB-231 [2]; siRNA: siBRCA1
  drug sensitivity score: 0
MDA-MB-231 [2]; [3]
  drug sensitivity score: 0

## CC[C@@H]1C(=O)OC[C@@H]1Cc1cncn1C [Pilocarpine]
MDA-MB-231 [1]; siRNA: siBRCA1
  IC50 of cell viability: > 4.17 µM
MDA-MB-231 [1]; [3]
  IC50 of cell viability: > 4.17 µM
MDA-MB-231 [2]; siRNA: siBRCA1
  drug sensitivity score: 0
MDA-MB-231 [2]; [3]
  drug sensitivity score: 0

## C[C@@]1(C(=O)Nc2ccc(F)nc2)CCCN1c1nc(Nc2cc(C3CC3)n[nH]2)c2cccn2n1
MDA-MB-231 [1]; siRNA: siBRCA1
  IC50 of cell viability: > 4.17 µM
MDA-MB-231 [1]; [3]
  IC50 of cell viability: 1.19 µM
MDA-MB-231 [2]; siRNA: siBRCA1
  drug sensitivity score: 3.5
MDA-MB-231 [2]; [3]
  drug sensitivity score: 7.43

## COC1=CC(c2cc3ccccc3[nH]2)=N/C1=C\c1[nH]c(C)cc1C [Obatoclax]
MDA-MB-231 [1]; siRNA: siBRCA1
  IC50 of cell viability: 0.399 µM
MDA-MB-231 [1]; [3]
  IC50 of cell viability: 0.355 µM
MDA-MB-231 [2]; siRNA: siBRCA1
  drug sensitivity score: 15
MDA-MB-231 [2]; [3]
  drug sensitivity score: 15

## CCCCCOC(=O)Nc1nc(=O)n([C@@H]2O[C@H](C)[C@@H](O)[C@H]2O)cc1F [Capecitabine]
MDA-MB-231 [1]; siRNA: siBRCA1
  IC50 of cell viability: > 4.17 µM
MDA-MB-231 [1]; [3]
  IC50 of cell viability: > 4.17 µM
MDA-MB-231 [2]; siRNA: siBRCA1
  drug sensitivity score: 0
MDA-MB-231 [2]; [3]
  drug sensitivity score: 0

## CCCCC(=O)OCC(=O)[C@]1(O)Cc2c(O)c3c(c(O)c2[C@@H](O[C@H]2C[C@H](NC(=O)C(F)(F)F)[C@H](O)[C@H](C)O2)C1)C(=O)c1c(OC)cccc1C3=O [Valrubicin]
MDA-MB-231 [1]; siRNA: siBRCA1
  IC50 of cell viability: 0.729 µM
MDA-MB-231 [1]; [3]
  IC50 of cell viability: 0.273 µM
MDA-MB-231 [2]; siRNA: siBRCA1
  drug sensitivity score: 9.56
MDA-MB-231 [2]; [3]
  drug sensitivity score: 12.5

## CNCc1ccc(-c2[nH]c3cc(F)cc4c3c2CCNC4=O)cc1
MDA-MB-231 [1]; siRNA: siBRCA1
  IC50 of cell viability: > 4.17 µM
MDA-MB-231 [1]; [3]
  IC50 of cell viability: > 4.17 µM
MDA-MB-231 [2]; siRNA: siBRCA1
  drug sensitivity score: 0
MDA-MB-231 [2]; [3]
  drug sensitivity score: 0

## C#Cc1cccc(Nc2ncnc3cc(OC)c(OCCCCCCC(=O)NO)cc23)c1 [CUDC-101]
MDA-MB-231 [1]; siRNA: siBRCA1
  IC50 of cell viability: 0.433 µM
MDA-MB-231 [1]; [3]
  IC50 of cell viability: 0.321 µM
MDA-MB-231 [2]; siRNA: siBRCA1
  drug sensitivity score: 14.7
MDA-MB-231 [2]; [3]
  drug sensitivity score: 16.4

## COc1cc2c(Oc3ccc4[nH]c(C)cc4c3F)ncnc2cc1OCCCN1CCCC1 [Cediranib]
MDA-MB-231 [1]; siRNA: siBRCA1
  IC50 of cell viability: > 4.17 µM
MDA-MB-231 [1]; [3]
  IC50 of cell viability: > 4.17 µM
MDA-MB-231 [2]; siRNA: siBRCA1
  drug sensitivity score: 0.0221
MDA-MB-231 [2]; [3]
  drug sensitivity score: 0

## Nc1ncn([C@@H]2O[C@H](CO)[C@@H](O)[C@H]2O)c(=O)n1 [Azacitidine]
MDA-MB-231 [1]; siRNA: siBRCA1
  IC50 of cell viability: > 4.17 µM
MDA-MB-231 [1]; [3]
  IC50 of cell viability: > 4.17 µM
MDA-MB-231 [2]; siRNA: siBRCA1
  drug sensitivity score: 0
MDA-MB-231 [2]; [3]
  drug sensitivity score: 0

## Cc1nc(Nc2ncc(C(=O)Nc3c(C)cccc3Cl)s2)cc(N2CCN(CCO)CC2)n1 [Dasatinib]
MDA-MB-231 [1]; siRNA: siBRCA1
  IC50 of cell viability: 0.011 µM
MDA-MB-231 [1]; [3]
  IC50 of cell viability: 0.0113 µM
MDA-MB-231 [2]; siRNA: siBRCA1
  drug sensitivity score: 27
MDA-MB-231 [2]; [3]
  drug sensitivity score: 27

## COCC[n+]1c2c(n(Cc3cnccn3)c1C)C(=O)c1ccccc1C2=O [YM155]
MDA-MB-231 [1]; siRNA: siBRCA1
  IC50 of cell viability: 0.00375 µM
MDA-MB-231 [1]; [3]
  IC50 of cell viability: 0.00356 µM
MDA-MB-231 [2]; siRNA: siBRCA1
  drug sensitivity score: 40.2
MDA-MB-231 [2]; [3]
  drug sensitivity score: 40.6

## O=C(O)CCCc1ccc(N(CCCl)CCCl)cc1 [Chlorambucil]
MDA-MB-231 [1]; siRNA: siBRCA1
  IC50 of cell viability: > 4.17 µM
MDA-MB-231 [1]; [3]
  IC50 of cell viability: > 4.17 µM
MDA-MB-231 [2]; siRNA: siBRCA1
  drug sensitivity score: 0.465
MDA-MB-231 [2]; [3]
  drug sensitivity score: 0

## O=C(Nc1ccncc1)C(=O)c1cn(Cc2ccc(Cl)cc2)c2ccccc12 [Indibulin]
MDA-MB-231 [1]; siRNA: siBRCA1
  IC50 of cell viability: 0.753 µM
MDA-MB-231 [1]; [3]
  IC50 of cell viability: 0.632 µM
MDA-MB-231 [2]; siRNA: siBRCA1
  drug sensitivity score: 7.58
MDA-MB-231 [2]; [3]
  drug sensitivity score: 7.93

## NCCCNCCSP(=O)(O)O [Amifostine]
MDA-MB-231 [1]; siRNA: siBRCA1
  IC50 of cell viability: > 4.17 µM
MDA-MB-231 [1]; [3]
  IC50 of cell viability: > 4.17 µM
MDA-MB-231 [2]; siRNA: siBRCA1
  drug sensitivity score: 0
MDA-MB-231 [2]; [3]
  drug sensitivity score: 0

## NC(=O)Nc1cc(-c2cccc(F)c2)sc1C(=O)N[C@H]1CCCNC1 [AZD 7762]
MDA-MB-231 [1]; siRNA: siBRCA1
  IC50 of cell viability: 0.242 µM
MDA-MB-231 [1]; [3]
  IC50 of cell viability: 0.582 µM
MDA-MB-231 [2]; siRNA: siBRCA1
  drug sensitivity score: 17.4
MDA-MB-231 [2]; [3]
  drug sensitivity score: 13.7
